Like-named read-outs stand apart in the source and are kept apart here.
Key:
Assay type in all cases: biochemical
[1] = molecular target: T1, DYRK2 (Homo sapiens, UniProt Q92630); assay: Inhibition test on activity of DYRK family, mobility shift assay (MSA): DYRK2
T1 construct: purchased Carna Biosciences, Inc. 04-132
T1 sequence (Q92630 74-601 limits assumed): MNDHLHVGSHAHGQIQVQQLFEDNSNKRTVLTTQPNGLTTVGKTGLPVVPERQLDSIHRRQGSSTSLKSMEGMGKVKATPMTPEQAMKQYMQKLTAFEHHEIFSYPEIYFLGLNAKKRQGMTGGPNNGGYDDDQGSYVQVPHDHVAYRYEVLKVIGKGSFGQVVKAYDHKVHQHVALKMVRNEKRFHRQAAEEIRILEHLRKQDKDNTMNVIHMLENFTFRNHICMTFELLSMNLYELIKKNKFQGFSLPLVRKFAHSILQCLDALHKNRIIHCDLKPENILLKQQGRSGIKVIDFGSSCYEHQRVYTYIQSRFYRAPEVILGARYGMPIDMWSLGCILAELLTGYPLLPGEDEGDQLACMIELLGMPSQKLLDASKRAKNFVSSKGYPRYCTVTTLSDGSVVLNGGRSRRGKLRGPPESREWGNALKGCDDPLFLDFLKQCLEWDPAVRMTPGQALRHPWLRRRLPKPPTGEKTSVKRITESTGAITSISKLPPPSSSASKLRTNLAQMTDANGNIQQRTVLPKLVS
Procedure, shortened: (§1)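 Reactions ran 1 h at room temperature in HEPES buffer pH 7.5 with FITC-DYRKtide as substrate. ATP in the substrate mix was 100 µM for DYRK1A, 200 µM for DYRK1B, 40 µM for DYRK2 and 20 µM for DYRK3. Phosphorylated and unphosphorylated peptide were separated on a LabChip, and IC50 was regressed on log dose.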

[2] = molecular target: T2, DYRK3 (Homo sapiens, UniProt O43781); assay: Inhibition test on activity of DYRK family, mobility shift assay (MSA): DYRK3
T2 construct: purchased Carna Biosciences, Inc. 04-133
T2 sequence (O43781 1-568 isoform O43781-2): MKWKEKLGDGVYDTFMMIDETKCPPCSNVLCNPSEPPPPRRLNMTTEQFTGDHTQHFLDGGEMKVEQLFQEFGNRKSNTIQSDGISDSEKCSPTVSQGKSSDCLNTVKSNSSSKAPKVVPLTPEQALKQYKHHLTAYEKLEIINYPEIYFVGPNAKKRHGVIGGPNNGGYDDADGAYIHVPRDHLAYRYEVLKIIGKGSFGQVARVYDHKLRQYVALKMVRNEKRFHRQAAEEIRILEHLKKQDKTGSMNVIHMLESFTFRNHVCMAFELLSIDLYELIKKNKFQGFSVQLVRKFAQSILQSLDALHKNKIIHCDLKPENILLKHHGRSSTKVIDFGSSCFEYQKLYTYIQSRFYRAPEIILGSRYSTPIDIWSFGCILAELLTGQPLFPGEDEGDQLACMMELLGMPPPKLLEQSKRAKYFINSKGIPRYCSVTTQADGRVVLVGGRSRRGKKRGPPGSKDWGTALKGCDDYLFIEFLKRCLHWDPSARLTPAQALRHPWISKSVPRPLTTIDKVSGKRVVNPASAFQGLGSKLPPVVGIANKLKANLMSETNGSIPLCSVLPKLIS
Procedure, shortened: as §1

[3] = molecular target: T3, DYRK1A (Homo sapiens, UniProt Q13627); assay: Inhibition test on activity of DYRK family, mobility shift assay (MSA): DYRK1A
T3 construct: purchased Carna Biosciences, Inc. 04-130
Procedure, shortened: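 IC50 derived by regressing inhibition rate on log compound concentration, using P/(P+S) peak ratios from electrophoretic separation. DYRK1A enzyme solution 0.2 ng/μL, substrate mix with 4 μM FITC-DYRKtide and 100 μM ATP, pH 7.5 HEPES; reaction run 1 h at room temperature.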

[4] = molecular target: T4, DYRK1B (Homo sapiens, UniProt Q9Y463); assay: Inhibition test on activity of DYRK family, mobility shift assay (MSA): DYRK1B
T4 construct: purchased Carna Biosciences, Inc. 04-131
Protocol: [Inhibition Test on Activity of DYRK Family (DYRK1A, DYRK1B, DYRK2, and DYRK3)]
The kinase activity was measured by mobility shift assay (MSA) method using QuickScout Screening Assist™ MSA (commercially available kit manufactured by Carna Biosciences, Inc.). The substrate of the kinase reaction used was an FITC-labeled DYRKtide peptide included in the kit. An assay buffer [20 mM HEPES, 0.01% Triton X-100™, 2 mM dithiothreitol, pH 7.5]was used to create a substrate mixture solution with a substrate (4 μM), MgCl2(20 mM), and ATP (DYRK1A: 100 μM; DYRK1B: 200 μM; DYRK2: 40 μM; and DYRK3: 20 μM). In addition, kinases (DYRK1A: manufactured by Carna Biosciences, Inc., Cat. No. 04-130; DYRK1B: manufactured by Carna Biosciences, Inc., Cat. No. 04-131; DYRK2; manufactured by Carna Biosciences, Inc., Cat. No. 04-132; and DYRK3; manufactured by Carna Biosciences, Inc., Cat. No. 04-133) were diluted with the assay buffer to prepare enzyme solutions (DYRK1A: 0.2 ng/μL; DYRK1B: 0.08 ng/μL; DYRK2: 0.04 ng/μL; and DYRK3: 0.25 ng/μL). The 10 mM solution of the test compound in DMSO was further diluted with DMSO to 10 levels of the concentration (0.00003 mM, 0.0001 mM, 0.0003 mM, 0.001 mM, 0.003 mM, 0.01 mM, 0.03 mM, 0.1 mM, 0.3 mM, and 1 mM), each of which was subjected to 25-fold dilution with the assay buffer to obtain a drug solution (4% DMSO solution). 5 μL of the drug solution or a control solution (4% DMSO-assay buffer), 5 μL of the substrate mixture solution, and 10 μL of the enzyme solution were mixed in the wells of a polypropylene 384-well plate and allowed to react at room temperature for 1 hour, and then the reaction was quenched by adding 60 μL of the termination buffer included in the kit. Subsequently, the quantities of the substrates (S) and the phosphorylated substrate (P) in the reaction solution were measured using LabChip EZ Reader II system (manufactured by Caliper Life Sciences) according to the protocol of the assay kit.
The heights of the peaks of the “substrate” and the “phosphorylated substrate” were expressed as S and P, respectively, and a blank containing the assay buffer instead of the enzyme solution was also measured.
The inhibition rate (%) of the test compound was calculated according to the following equation:
Inhibition rate (%)=(1−(C−A)/(B−A))×100 • wherein, A, B, and C represent P/(P+S) of the blank well, P/(P+S) of the control solution well, and P/(P+S) of the compound-containing well, respectively.
The IC50 value was calculated via a regression analysis of the inhibition rate and the test compound concentration (logarithmic value).
The inhibiting activities of representative compounds of the present invention are shown against DYRK1A, DYRK1B, DYRK2, and DYRK3 in Tables.

[5] = MSA, FITC-labeled DYRKtide peptide, ATP 40 μM, read-out: Inhibitory activity DYRK 2 (IC50 class)
[6] = MSA, FITC-labeled DYRKtide peptide, ATP 20 μM, read-out: Inhibitory activity DYRK 3 (IC50 class)
[7] = MSA, FITC-labeled DYRKtide peptide, ATP 100 μM, read-out: Inhibitory activity DYRK 1A (IC50 class)
[8] = MSA, FITC-labeled DYRKtide peptide, ATP 200 μM, read-out: Inhibitory activity DYRK 1B (IC50 class)

T4 sequence (Q9Y463 whole entry): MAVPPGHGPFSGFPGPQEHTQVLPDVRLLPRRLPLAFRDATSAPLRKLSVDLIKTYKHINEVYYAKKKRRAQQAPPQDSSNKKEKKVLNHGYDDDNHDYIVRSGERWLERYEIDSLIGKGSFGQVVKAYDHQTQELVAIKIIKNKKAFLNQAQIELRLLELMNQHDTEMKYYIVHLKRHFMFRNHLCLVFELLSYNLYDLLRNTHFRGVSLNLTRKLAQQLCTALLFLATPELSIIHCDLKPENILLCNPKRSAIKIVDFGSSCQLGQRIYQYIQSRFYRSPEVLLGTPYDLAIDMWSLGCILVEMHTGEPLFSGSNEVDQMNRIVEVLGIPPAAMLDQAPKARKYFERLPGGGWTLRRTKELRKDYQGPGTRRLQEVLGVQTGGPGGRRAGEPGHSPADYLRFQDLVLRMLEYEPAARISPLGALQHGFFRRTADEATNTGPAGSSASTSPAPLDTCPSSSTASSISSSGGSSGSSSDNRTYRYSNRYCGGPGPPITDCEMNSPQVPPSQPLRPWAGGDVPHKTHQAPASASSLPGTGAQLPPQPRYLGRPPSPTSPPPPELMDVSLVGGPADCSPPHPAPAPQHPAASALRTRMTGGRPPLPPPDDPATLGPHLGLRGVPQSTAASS

Structure (SMILES)	IC50 ([1]; read-out: Inhibitory activity DYRK 2) [nM]	IC50 ([2]; read-out: Inhibitory activity DYRK 3) [nM]	IC50 ([3]; read-out: Inhibitory activity DYRK 1A) [nM]	IC50 ([4]; read-out: Inhibitory activity DYRK 1B) [nM]	IC50 [1, 5] [nM]	IC50 [2, 6] [nM]	IC50 [3, 7] [nM]	IC50 [4, 8] [nM]
O=C1N[C@H]2COCC[C@H]2N1c1nc2c3c(ccc2s1)OCC3 [Example 122, (3aR,7aR)-1-(7,8-dihydrofuro[3,2-e][1,3]benzothiazol-2-yl)hexahydropyrano[3,4-d]imidazol-2(3H)-one]	100 to 1000	100 to 1000	< 10	< 10				
O=C1N[C@H]2CO[C@@H](CF)C[C@H]2N1c1nc2c3c(ccc2s1)OCC3 [Example 40, (3aR,6R,7aR)-1-(7,8-dihydrofuro[3,2-e][1,3]benzothiazol-2-yl)-6-(fluoromethyl)hexahydropyrano[3,4-d]imidazol-2(3H)-one]					100 to 1000	10 to 100	< 10	< 10
CCN1CC[C@H]2NC(=O)N(c3nc4c5c(ccc4s3)OCC5)[C@H]2C1 (relative stereo) [Example 11, cis-3-(7,8-dihydrofuro[3,2-e][1,3]benzothiazol-2-yl)-5-ethyloctahydro-2H-imidazo[4,5-c]pyridin-2-one]					≥ 1000	≥ 1000	10 to 100	10 to 100
CN1C[C@H]2NC(=O)N(c3nc4c5c(ccc4s3)OCC5)[C@H]2C1 (relative stereo) [Example 14, cis-1-(7,8-dihydrofuro[3,2-e][1,3]benzothiazol-2-yl)-5-methylhexahydropyrrolo[3,4-d]imidazol-2(1H)-one]					100 to 1000	10 to 100	10 to 100	10 to 100
C[C@H]1C[C@@H]2[C@H](CO1)NC(=O)N2c1nc2c3c(ccc2s1)OCCO3 [Example 39, (3aR,6S,7aR)-1-(7,8-dihydro[1,4]dioxino[2,3-e][1,3]benzothiazol-2-yl)-6-methylhexahydropyrano[3,4-d]imidazol-2(3H)-one]					100 to 1000	100 to 1000	< 10	< 10
O=C1N[C@H]2CCN(C3CC3)C[C@H]2N1c1nc2c3c(ccc2s1)OCCO3 (single isomer, unassigned) [Example 34]					≥ 1000	≥ 1000	< 10	10 to 100
C[C@@H]1NC(=O)N(c2nc3c4c(ccc3s2)OCC4)[C@@H]1CN1CCOCC1 [Example 23, (4S,5R)-1-(7,8-dihydrofuro[3,2-e][1,3]benzothiazol-2-yl)-4-methyl-5-[(morpholin-4-yl)methyl]imidazolidin-2-one]					100 to 1000	100 to 1000	< 10	< 10
O=C1N[C@H]2CO[C@@H](CF)C[C@H]2N1c1nc2c3c(ccc2s1)OCCO3 [Example 41, (3aR,6R,7aR)-1-(7,8-dihydro[1,4]dioxino[2,3-e][1,3]benzothiazol-2-yl)-6-(fluoromethyl)hexahydropyrano[3,4-d]imidazol-2(3H)-one]					100 to 1000	10 to 100	< 10	< 10
C[C@H]1C[C@@H]2[C@H](CO1)NC(=O)N2c1nc2c3c(ccc2s1)OCC3 [Example 38, (3aR,6S,7aR)-1-(7,8-dihydrofuro[3,2-e][1,3]benzothiazol-2-yl)-6-methylhexahydropyrano[3,4-d]imidazol-2(3H)-one]					100 to 1000	100 to 1000	< 10	< 10

Now from value to molecule:

IC50 ([1]; read-out: Inhibitory activity DYRK 2) [nM]	IC50 ([2]; read-out: Inhibitory activity DYRK 3) [nM]	IC50 ([3]; read-out: Inhibitory activity DYRK 1A) [nM]	IC50 ([4]; read-out: Inhibitory activity DYRK 1B) [nM]	IC50 [1, 5] [nM]	IC50 [2, 6] [nM]	IC50 [3, 7] [nM]	IC50 [4, 8] [nM]	Structure (SMILES)
				10 to 100	100 to 1000	10 to 100	10 to 100	C[C@H]1OC[C@@H]2NC(=O)N(c3nc4c5c(ccc4s3)OCC5)[C@@H]21 [Example 161, (3aR,6R,6aS)-1-(7,8-Dihydrofuro[3,2-e][1,3]benzothiazol-2-yl)-6-methyltetrahydro-1H-furo[3,4-d]imidazol-2(3H)-one]
				≥ 1000	≥ 1000	10 to 100	10 to 100	C[C@H]1NC(=O)N(c2nc3c4c(ccc3s2)OCC4)[C@@H]1CN1CCOCC1 [Example 24, (4R,5R)-1-(7,8-dihydrofuro[3,2-e][1,3]benzothiazol-2-yl)-4-methyl-5-[(morpholin-4-yl)methyl]imidazolidin-2-one]
				100 to 1000	100 to 1000	< 10	< 10	CC[C@H]1C[C@@H]2[C@H](CO1)NC(=O)N2c1nc2c3c(ccc2s1)OCC3 [Example 42, (3aR,6S,7aR)-1-(7,8-dihydrofuro[3,2-e][1,3]benzothiazol-2-yl)-6-ethylhexahydropyrano[3,4-d]imidazol-2(3H)-one]
				10 to 100	10 to 100	< 10	10 to 100	O=C1N[C@H]2CO[C@H](CF)[C@H]2N1c1nc2c3c(ccc2s1)OCC3 [Example 159, (3aR,6S,6aS)-1-(7,8-dihydrofuro[3,2-e][1,3]benzothiazol-2-yl)-6-(fluoromethyl)tetrahydro-1H-furo[3,4-d]imidazol-2(3H)-one]
				≥ 1000	≥ 1000	≥ 1000	≥ 1000	CN1CC[C@H]2NC(=O)N(c3nc4c5c(ccc4s3)OCC5)[C@H]2C1 (single isomer, unassigned) [Example 27]
